Experimental data: PubChem BioAssay AID2060907 (Molecular Pharmacology Branch, DTP, NCI, 2025)
pIC50: −log10 of the molar value.

Test system: 388556-164-R-J1-PDC complex spheroid viability
Experiment: Anticancer human tumor 388556-164-R-J1-PDC patient-derived colon adenocarcinoma cell line growth inhibition [RAS]
Details: for pIC50: curve of first compound; for viability, T/C: stronger effect = lower value
Summary of the method: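 Multi-cell-type spheroids: tumor cells plus HUVEC endothelial cells and mesenchymal stem cells. RAS-pathway inhibitors were combined with targeted agents, each dosed in half-log steps down from clinical Cmax, or from 10 microM when Cmax was unknown.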

[1] = second compound 0.000949 µM, first compound 0.0316 µM
[2] = second compound 0.000949 µM, first compound 0.1 µM
[3] = second compound 0.000949 µM, first compound 0.316 µM
[4] = second compound 0.000949 µM, first compound 1 µM
[5] = second compound 0.003 µM, first compound 0.0316 µM
[6] = second compound 0.003 µM, first compound 0.1 µM
[7] = second compound 0.003 µM, first compound 0.316 µM
[8] = second compound 0.003 µM, first compound 1 µM
[9] = second compound 0.00949 µM, first compound 0.0316 µM
[10] = second compound 0.00949 µM, first compound 0.1 µM
[11] = second compound 0.00949 µM, first compound 0.316 µM
[12] = second compound 0.00949 µM, first compound 1 µM
[13] = second compound 0.03 µM, first compound 0.0316 µM
[14] = second compound 0.03 µM, first compound 0.1 µM
[15] = second compound 0.03 µM, first compound 0.316 µM
[16] = second compound 0.03 µM, first compound 1 µM
[17] = second compound 0.0949 µM, first compound 0.0316 µM
[18] = second compound 0.0949 µM, first compound 0.1 µM
[19] = second compound 0.0949 µM, first compound 0.316 µM
[20] = second compound 0.0949 µM, first compound 1 µM
[21] = second compound 0.3 µM, first compound 0.0316 µM
[22] = second compound 0.3 µM, first compound 0.1 µM
[23] = second compound 0.3 µM, first compound 0.316 µM
[24] = second compound 0.3 µM, first compound 1 µM
[25] = second compound 0.000949 µM, first compound 3.16 µM
[26] = second compound 0.000949 µM, first compound 10 µM
[27] = second compound 0.003 µM, first compound 3.16 µM
[28] = second compound 0.003 µM, first compound 10 µM
[29] = second compound 0.00949 µM, first compound 3.16 µM
[30] = second compound 0.00949 µM, first compound 10 µM
[31] = second compound 0.03 µM, first compound 3.16 µM
[32] = second compound 0.03 µM, first compound 10 µM
[33] = second compound 0.0949 µM, first compound 3.16 µM
[34] = second compound 0.0949 µM, first compound 10 µM
[35] = second compound 0.3 µM, first compound 3.16 µM
[36] = second compound 0.3 µM, first compound 10 µM
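Also: spheroids exposed to compound for 7 days before readout.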
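For viability, T/C in this document: 100% = DMSO vehicle control luminescence.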

CCN1CCN(Cc2ccc(Nc3ncc(F)c(-c4cc(F)c5nc(C)n(C(C)C)c5c4)n3)nc2)CC1 + CCn1c(-c2cc(N3CCN(C)CC3)cnc2C(C)OC)c2c3cc(ccc31)-c1csc(n1)CC(NC(=O)C1CC1C)C(=O)N1CCCC(N1)C(=O)OCC(C)(C)C2
pIC50 (second compound 0.000949 µM): < 6.00 | pIC50 (second compound 0.003 µM): < 6.00 | pIC50 (second compound 0.00949 µM): 6.06 | pIC50 (second compound 0.03 µM): 6.66 | pIC50 (second compound 0.0949 µM): > 8.50 | pIC50 (second compound 0.3 µM): > 8.50 | viability, T/C (second compound 0.000949 µM, first compound 0.00316 µM): 97.5% | viability, T/C (second compound 0.000949 µM, first compound 0.01 µM): 92.2% | viability, T/C [1]: 93.1% | viability, T/C [2]: 79.4% | viability, T/C [3]: 75% | viability, T/C [4]: 75.2% | viability, T/C (second compound 0.003 µM, first compound 0.00316 µM): 96% | viability, T/C (second compound 0.003 µM, first compound 0.01 µM): 96.8% | viability, T/C [5]: 76.6% | viability, T/C [6]: 71.3% | viability, T/C [7]: 66.2% | viability, T/C [8]: 58.7% | viability, T/C (second compound 0.00949 µM, first compound 0.00316 µM): 79.8% | viability, T/C (second compound 0.00949 µM, first compound 0.01 µM): 78.6% | viability, T/C [9]: 68.5% | viability, T/C [10]: 58.1% | viability, T/C [11]: 62.7% | viability, T/C [12]: 46.8% | viability, T/C (second compound 0.03 µM, first compound 0.00316 µM): 59% | viability, T/C (second compound 0.03 µM, first compound 0.01 µM): 64.4% | viability, T/C [13]: 65.9% | viability, T/C [14]: 57.9% | viability, T/C [15]: 46.2% | viability, T/C [16]: 38.7% | viability, T/C (second compound 0.0949 µM, first compound 0.00316 µM): 45.9% | viability, T/C (second compound 0.0949 µM, first compound 0.01 µM): 41.2% | viability, T/C [17]: 35.4% | viability, T/C [18]: 30.8% | viability, T/C [19]: 34% | viability, T/C [20]: 31.4% | viability, T/C (second compound 0.3 µM, first compound 0.00316 µM): 33.2% | viability, T/C (second compound 0.3 µM, first compound 0.01 µM): 32.3% | viability, T/C [21]: 31.9% | viability, T/C [22]: 30.8% | viability, T/C [23]: 29.5% | viability, T/C [24]: 31.5%

Cc1nc(N2CCC3(CC2)COC(C)C3N)c(CO)nc1Sc1ccnc(N)c1Cl (stereo unspecified) + CCn1c(-c2cc(N3CCN(C)CC3)cnc2C(C)OC)c2c3cc(ccc31)-c1csc(n1)CC(NC(=O)C1CC1C)C(=O)N1CCCC(N1)C(=O)OCC(C)(C)C2
pIC50 (second compound 0.000949 µM): 6.11 | pIC50 (second compound 0.003 µM): 6.16 | pIC50 (second compound 0.00949 µM): 6.63 | pIC50 (second compound 0.03 µM): 7.17 | pIC50 (second compound 0.0949 µM): > 7.50 | pIC50 (second compound 0.3 µM): > 7.50 | viability, T/C [1]: 84.3% | viability, T/C [2]: 83.6% | viability, T/C [3]: 60.2% | viability, T/C [4]: 47.5% | viability, T/C [25]: 43.1% | viability, T/C [26]: 34.3% | viability, T/C [5]: 81.2% | viability, T/C [6]: 70.3% | viability, T/C [7]: 57.7% | viability, T/C [8]: 45.8% | viability, T/C [27]: 39.2% | viability, T/C [28]: 32.8% | viability, T/C [9]: 68.7% | viability, T/C [10]: 53.4% | viability, T/C [11]: 52.5% | viability, T/C [12]: 36.6% | viability, T/C [29]: 35.1% | viability, T/C [30]: 29.7% | viability, T/C [13]: 56.7% | viability, T/C [14]: 45.6% | viability, T/C [15]: 39.2% | viability, T/C [16]: 33.4% | viability, T/C [31]: 29.9% | viability, T/C [32]: 23.5% | viability, T/C [17]: 40.6% | viability, T/C [18]: 37.2% | viability, T/C [19]: 30.9% | viability, T/C [20]: 26.3% | viability, T/C [33]: 25.9% | viability, T/C [34]: 22.8% | viability, T/C [21]: 28.8% | viability, T/C [22]: 30.6% | viability, T/C [23]: 25.4% | viability, T/C [24]: 25.7% | viability, T/C [35]: 24% | viability, T/C [36]: 20%

NC1c2ccccc2OC12CCN(c1cnc3c(N4CCCc5ncccc54)n[nH]c3n1)CC2 (stereo unspecified) + CCn1c(-c2cc(N3CCN(C)CC3)cnc2C(C)OC)c2c3cc(ccc31)-c1csc(n1)CC(NC(=O)C1CC1C)C(=O)N1CCCC(N1)C(=O)OCC(C)(C)C2
pIC50 (second compound 0.000949 µM): 6.97 | pIC50 (second compound 0.003 µM): 6.94 | pIC50 (second compound 0.00949 µM): 7.32 | pIC50 (second compound 0.03 µM): > 7.50 | pIC50 (second compound 0.0949 µM): > 7.50 | pIC50 (second compound 0.3 µM): > 7.50 | viability, T/C [1]: 64.5% | viability, T/C [2]: 50.1% | viability, T/C [3]: 39% | viability, T/C [4]: 39.8% | viability, T/C [25]: 30.3% | viability, T/C [26]: 29.1% | viability, T/C [5]: 63% | viability, T/C [6]: 52% | viability, T/C [7]: 39.2% | viability, T/C [8]: 30.3% | viability, T/C [27]: 27.7% | viability, T/C [28]: 22.6% | viability, T/C [9]: 54.3% | viability, T/C [10]: 43.1% | viability, T/C [11]: 30.6% | viability, T/C [12]: 24.3% | viability, T/C [29]: 23.8% | viability, T/C [30]: 21.9% | viability, T/C [13]: 35.7% | viability, T/C [14]: 29.9% | viability, T/C [15]: 26.3% | viability, T/C [16]: 22.5% | viability, T/C [31]: 20.5% | viability, T/C [32]: 18.6% | viability, T/C [17]: 32.3% | viability, T/C [18]: 27.8% | viability, T/C [19]: 22.5% | viability, T/C [20]: 20.8% | viability, T/C [33]: 22.4% | viability, T/C [34]: 19.1% | viability, T/C [21]: 27.5% | viability, T/C [22]: 23.8% | viability, T/C [23]: 23.3% | viability, T/C [24]: 21.3% | viability, T/C [35]: 22.2% | viability, T/C [36]: 21.9%
